Several values for one entry are separate records, joined by “and”; a condition that tells them apart may be missing. Equal entries are not always repeated. Where two headings read alike, the source gives them in different places.
Experiments:
Assay in all cases: SelectScreen kinase panel screening
Type in all cases: biochemical
ABL2 (Arg) = ABL2 (Arg) (Homo sapiens (Human), UniProt P42684)
Text: (§1) The complete list of the kinases given in Table 1 and their details can be found on the ThermoFisher website for Biochemical Kinase assays (thermofisher.com/us/en/home/industrial/pharma-biopharma/drug-discovery-development/target-and-lead-identification-and-validation/kinasebiology.html).

AKT2 (PKB beta) = AKT2 (PKB beta) (Homo sapiens (Human), UniProt P31751)
Sequence of AKT2 (PKB beta) (P31751 whole entry): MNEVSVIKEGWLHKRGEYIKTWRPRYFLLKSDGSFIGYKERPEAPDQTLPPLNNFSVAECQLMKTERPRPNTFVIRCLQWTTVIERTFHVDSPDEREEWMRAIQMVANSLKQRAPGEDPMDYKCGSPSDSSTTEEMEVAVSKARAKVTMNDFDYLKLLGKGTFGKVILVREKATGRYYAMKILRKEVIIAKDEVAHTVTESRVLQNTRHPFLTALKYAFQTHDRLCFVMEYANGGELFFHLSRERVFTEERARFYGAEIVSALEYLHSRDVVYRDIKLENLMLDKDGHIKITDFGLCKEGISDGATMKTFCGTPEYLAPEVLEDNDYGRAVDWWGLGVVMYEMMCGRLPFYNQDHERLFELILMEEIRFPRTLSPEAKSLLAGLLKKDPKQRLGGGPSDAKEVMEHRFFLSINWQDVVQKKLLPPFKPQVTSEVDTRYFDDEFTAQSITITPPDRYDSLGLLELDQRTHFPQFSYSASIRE
Text: as §1

AURKC (Aurora C) = AURKC (Aurora C) (Homo sapiens (Human), UniProt Q9UQB9)
Text: as §1

BRAF V599E = BRAF V599E (Homo sapiens (Human), UniProt P15056, V600E)
Text: as §1

CDC42 BPB (MRCKB) = CDC42 BPB (MRCKB) (Homo sapiens (Human), UniProt Q9Y5S2)
Text: as §1

CDK7/cyclin H/MNAT1 = CDK7/cyclin H/MNAT1 (Homo sapiens (Human), UniProt P50613)
Sequence of CDK7/cyclin H/MNAT1 (P50613 whole entry): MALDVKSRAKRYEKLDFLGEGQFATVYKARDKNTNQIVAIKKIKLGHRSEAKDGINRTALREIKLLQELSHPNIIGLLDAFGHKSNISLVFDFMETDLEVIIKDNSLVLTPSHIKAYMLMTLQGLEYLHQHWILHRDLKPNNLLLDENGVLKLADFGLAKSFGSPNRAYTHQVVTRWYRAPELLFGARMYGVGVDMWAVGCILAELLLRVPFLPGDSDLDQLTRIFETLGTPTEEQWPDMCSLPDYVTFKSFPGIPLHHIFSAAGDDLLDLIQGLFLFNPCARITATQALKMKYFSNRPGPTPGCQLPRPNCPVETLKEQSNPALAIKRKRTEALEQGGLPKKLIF
Sequence of CDK7/cyclin H/MNAT1 (P51946 whole entry partner): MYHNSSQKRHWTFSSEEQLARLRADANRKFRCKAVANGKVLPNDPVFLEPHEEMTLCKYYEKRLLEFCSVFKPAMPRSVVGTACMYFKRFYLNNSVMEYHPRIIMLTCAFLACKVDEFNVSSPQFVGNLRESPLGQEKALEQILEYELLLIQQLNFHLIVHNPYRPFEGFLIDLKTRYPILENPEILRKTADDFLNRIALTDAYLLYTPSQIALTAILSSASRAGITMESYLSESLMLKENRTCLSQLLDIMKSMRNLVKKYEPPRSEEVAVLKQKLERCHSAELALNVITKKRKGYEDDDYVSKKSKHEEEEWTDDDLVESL
Sequence of CDK7/cyclin H/MNAT1 (P51948 whole entry partner): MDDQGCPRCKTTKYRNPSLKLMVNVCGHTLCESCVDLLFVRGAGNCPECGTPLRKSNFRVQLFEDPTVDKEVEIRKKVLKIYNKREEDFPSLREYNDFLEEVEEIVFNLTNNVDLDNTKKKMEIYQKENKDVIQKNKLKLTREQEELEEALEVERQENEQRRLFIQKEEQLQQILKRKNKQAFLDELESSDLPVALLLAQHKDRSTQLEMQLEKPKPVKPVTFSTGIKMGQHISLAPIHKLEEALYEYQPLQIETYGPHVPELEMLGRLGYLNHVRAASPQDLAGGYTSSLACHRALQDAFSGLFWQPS
Text: as §1

EPHA2 = EPHA2 (Homo sapiens (Human), UniProt P29317)
Text: as §1

FGR = FGR (Homo sapiens (Human), UniProt P09769)
Text: as §1

FLT1 (VEGFR1) = FLT1 (VEGFR1) (Homo sapiens (Human), UniProt P17948)
Text: as §1

FLT4 (VEGFR3) = FLT4 (VEGFR3) (Homo sapiens (Human), UniProt P35916)
Text: as §1

FYN = FYN (Homo sapiens (Human), UniProt P06241)
Sequence of FYN (P06241 whole entry): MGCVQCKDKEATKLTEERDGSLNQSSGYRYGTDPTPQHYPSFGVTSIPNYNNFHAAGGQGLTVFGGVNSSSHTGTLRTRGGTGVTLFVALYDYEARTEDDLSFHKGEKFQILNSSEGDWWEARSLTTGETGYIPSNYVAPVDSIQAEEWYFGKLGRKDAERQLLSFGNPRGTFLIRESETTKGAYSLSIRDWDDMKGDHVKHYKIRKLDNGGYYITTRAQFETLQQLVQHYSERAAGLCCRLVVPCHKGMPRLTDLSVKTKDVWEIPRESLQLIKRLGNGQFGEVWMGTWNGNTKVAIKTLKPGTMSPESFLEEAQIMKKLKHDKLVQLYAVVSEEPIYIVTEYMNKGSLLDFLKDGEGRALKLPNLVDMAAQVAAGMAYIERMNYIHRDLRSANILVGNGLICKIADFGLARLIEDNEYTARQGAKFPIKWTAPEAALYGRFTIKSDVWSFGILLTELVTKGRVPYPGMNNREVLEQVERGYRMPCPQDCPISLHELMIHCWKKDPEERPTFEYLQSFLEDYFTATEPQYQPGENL
Text: as §1

GSG2 (Haspin) = GSG2 (Haspin) (Homo sapiens (Human), UniProt Q8TF76)
Sequence of GSG2 (Haspin) (Q8TF76 whole entry): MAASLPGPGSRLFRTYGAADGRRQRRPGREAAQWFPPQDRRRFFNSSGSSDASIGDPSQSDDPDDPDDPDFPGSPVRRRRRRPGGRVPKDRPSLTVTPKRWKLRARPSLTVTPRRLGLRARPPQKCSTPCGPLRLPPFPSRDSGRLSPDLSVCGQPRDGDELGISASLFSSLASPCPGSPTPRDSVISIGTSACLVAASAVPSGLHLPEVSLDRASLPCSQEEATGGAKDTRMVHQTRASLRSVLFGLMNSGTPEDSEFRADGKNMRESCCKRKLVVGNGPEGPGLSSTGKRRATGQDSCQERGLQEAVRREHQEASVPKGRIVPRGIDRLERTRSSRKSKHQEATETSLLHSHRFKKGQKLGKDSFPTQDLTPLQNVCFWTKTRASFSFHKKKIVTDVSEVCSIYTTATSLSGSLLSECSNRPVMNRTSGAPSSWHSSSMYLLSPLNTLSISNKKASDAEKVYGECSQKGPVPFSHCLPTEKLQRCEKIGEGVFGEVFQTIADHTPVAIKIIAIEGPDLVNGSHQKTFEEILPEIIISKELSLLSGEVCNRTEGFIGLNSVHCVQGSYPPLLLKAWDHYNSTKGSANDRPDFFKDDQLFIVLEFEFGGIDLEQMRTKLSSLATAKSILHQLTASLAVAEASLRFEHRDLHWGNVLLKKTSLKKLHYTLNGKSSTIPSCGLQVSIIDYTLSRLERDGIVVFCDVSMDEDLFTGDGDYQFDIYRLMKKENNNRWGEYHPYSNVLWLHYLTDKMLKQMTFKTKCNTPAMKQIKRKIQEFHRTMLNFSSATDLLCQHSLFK
Text: as §1

IGF1R = IGF1R (Homo sapiens (Human), UniProt P08069)
Text: as §1

IKBKE (IKK epsilon) = IKBKE (IKK epsilon) (Homo sapiens (Human), UniProt Q14164)
Text: as §1

JAK2 = JAK2 (Homo sapiens (Human), UniProt O60674)
Sequence of JAK2 (O60674 whole entry): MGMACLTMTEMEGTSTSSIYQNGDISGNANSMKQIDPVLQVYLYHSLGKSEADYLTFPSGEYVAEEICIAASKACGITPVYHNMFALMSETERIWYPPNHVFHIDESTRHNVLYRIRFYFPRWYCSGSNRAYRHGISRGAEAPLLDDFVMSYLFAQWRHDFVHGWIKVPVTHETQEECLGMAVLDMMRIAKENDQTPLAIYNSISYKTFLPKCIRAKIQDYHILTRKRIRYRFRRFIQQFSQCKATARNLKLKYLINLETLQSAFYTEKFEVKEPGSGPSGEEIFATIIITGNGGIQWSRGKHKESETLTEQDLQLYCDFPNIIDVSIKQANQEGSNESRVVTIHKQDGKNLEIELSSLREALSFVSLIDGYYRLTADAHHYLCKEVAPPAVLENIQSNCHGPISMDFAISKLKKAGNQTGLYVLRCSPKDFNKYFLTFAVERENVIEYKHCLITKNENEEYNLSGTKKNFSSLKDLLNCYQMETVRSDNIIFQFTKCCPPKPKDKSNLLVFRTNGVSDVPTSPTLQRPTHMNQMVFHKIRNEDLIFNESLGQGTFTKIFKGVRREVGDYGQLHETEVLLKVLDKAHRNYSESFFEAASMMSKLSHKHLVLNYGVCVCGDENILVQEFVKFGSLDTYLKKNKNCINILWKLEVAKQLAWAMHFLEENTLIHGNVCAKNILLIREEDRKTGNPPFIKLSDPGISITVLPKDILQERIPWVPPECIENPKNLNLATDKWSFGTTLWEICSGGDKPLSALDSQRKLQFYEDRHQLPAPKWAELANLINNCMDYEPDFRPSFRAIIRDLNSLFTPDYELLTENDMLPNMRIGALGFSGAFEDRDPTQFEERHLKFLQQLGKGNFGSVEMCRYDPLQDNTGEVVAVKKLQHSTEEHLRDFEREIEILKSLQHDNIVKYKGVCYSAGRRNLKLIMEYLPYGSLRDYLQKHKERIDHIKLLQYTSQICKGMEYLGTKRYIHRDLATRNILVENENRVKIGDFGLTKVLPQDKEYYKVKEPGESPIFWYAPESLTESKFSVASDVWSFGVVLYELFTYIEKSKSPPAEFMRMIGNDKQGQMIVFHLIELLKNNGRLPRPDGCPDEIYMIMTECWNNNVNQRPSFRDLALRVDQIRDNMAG
Text: as §1

JAK2 JH1 JH2 = JAK2 JH1 JH2 (Homo sapiens (Human), UniProt O60674)
Text: as §1

JAK2 JH1 JH2 V617F = JAK2 JH1 JH2 V617F (Homo sapiens (Human), UniProt O60674, V617F)
Text: as §1

LYN A = LYN A (Homo sapiens (Human), UniProt P07948)
Text: as §1

MAP3K8 (COT) = MAP3K8 (COT) (Homo sapiens (Human), UniProt P41279)
Text: as §1

MST1R (RON) = MST1R (RON) (Homo sapiens (Human), UniProt Q04912)
Text: as §1

PAK4 = PAK4 (Homo sapiens (Human), UniProt O96013)
Text: as §1

PDGFRA (PDGFR alpha) = PDGFRA (PDGFR alpha) (Homo sapiens (Human), UniProt P16234)
Text: as §1

[1] = target: PIK3CA/PIK3R1 (p110 alpha/p85 alpha) (Homo sapiens (Human), UniProt P42336); details: read-out: % Inhibition class
Text: as §1

PIK3CG (p110 gamma) = PIK3CG (p110 gamma) (Homo sapiens (Human), UniProt P48736)
Sequence of PIK3CG (p110 gamma) (P48736 whole entry): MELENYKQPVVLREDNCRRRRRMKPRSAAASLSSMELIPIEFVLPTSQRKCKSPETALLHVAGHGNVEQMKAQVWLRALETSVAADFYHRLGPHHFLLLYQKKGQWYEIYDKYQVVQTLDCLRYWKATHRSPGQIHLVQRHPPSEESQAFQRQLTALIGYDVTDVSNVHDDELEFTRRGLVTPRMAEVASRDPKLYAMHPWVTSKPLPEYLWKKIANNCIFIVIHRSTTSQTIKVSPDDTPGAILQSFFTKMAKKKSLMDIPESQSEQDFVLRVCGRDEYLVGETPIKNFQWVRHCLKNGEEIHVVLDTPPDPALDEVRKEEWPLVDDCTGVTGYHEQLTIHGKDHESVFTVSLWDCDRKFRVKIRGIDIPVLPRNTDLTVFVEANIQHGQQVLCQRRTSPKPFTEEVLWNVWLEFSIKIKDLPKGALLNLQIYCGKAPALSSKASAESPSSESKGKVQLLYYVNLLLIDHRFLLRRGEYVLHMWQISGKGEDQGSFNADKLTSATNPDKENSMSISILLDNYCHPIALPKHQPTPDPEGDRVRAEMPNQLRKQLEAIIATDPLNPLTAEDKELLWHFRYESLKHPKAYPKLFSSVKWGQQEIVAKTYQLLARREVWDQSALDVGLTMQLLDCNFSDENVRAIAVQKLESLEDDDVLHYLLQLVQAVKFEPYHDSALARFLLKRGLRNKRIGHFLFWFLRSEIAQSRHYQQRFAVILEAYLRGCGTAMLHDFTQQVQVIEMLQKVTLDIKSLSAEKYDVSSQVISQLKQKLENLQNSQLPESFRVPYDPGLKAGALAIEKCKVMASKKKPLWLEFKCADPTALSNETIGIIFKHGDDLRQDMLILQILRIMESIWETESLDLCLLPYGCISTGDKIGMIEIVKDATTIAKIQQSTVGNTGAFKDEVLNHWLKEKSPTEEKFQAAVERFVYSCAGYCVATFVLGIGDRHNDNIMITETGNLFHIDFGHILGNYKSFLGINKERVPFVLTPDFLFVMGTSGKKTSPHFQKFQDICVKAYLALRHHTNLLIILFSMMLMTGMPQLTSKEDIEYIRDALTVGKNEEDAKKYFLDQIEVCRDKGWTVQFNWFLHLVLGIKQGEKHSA
Text: as §1

PRKCB2 (PKC beta II) = PRKCB2 (PKC beta II) (Homo sapiens (Human), UniProt P05771)
Text: as §1

PTK2 (FAK) = PTK2 (FAK) (Homo sapiens (Human), UniProt Q05397)
Text: as §1

ROCK1 = ROCK1 (Homo sapiens (Human), UniProt Q13464)
Text: as §1

ROS1 = ROS1 (Homo sapiens (Human), UniProt P08922)
Text: as §1

SPHK1 = SPHK1 (Homo sapiens (Human), UniProt Q9NYA1); details: read-out: % Inhibition class
Text: as §1

SYK = SYK (Homo sapiens (Human), UniProt P43405)
Text: as §1

YES1 = YES1 (Homo sapiens (Human), UniProt P07947)
Text: as §1

- inhibition at 10 µM (ABL2 (Arg); read-out: % Inhibition): 54%
- inhibition at 10 µM (ABL2 (Arg); read-out: % Inhibition class): 40 to 80%
- inhibition at 10 µM (AKT2 (PKB beta); read-out: % Inhibition): 9%
- inhibition at 10 µM (AKT2 (PKB beta); read-out: % Inhibition class): < 40%
- inhibition at 10 µM (AURKC (Aurora C); read-out: % Inhibition): 40%
- inhibition at 10 µM (AURKC (Aurora C); read-out: % Inhibition class): < 40%
- inhibition at 10 µM (BRAF V599E; read-out: % Inhibition): 22%
- inhibition at 10 µM (BRAF V599E; read-out: % Inhibition class): < 40%
- inhibition at 10 µM (CDC42 BPB (MRCKB); read-out: % Inhibition): 0%
- inhibition at 10 µM (CDC42 BPB (MRCKB); read-out: % Inhibition class): < 40%
- % Inhibition (CDK7/cyclin H/MNAT1; 10 μM): 1% and −1%
- inhibition at 10 µM (CDK7/cyclin H/MNAT1; read-out: % Inhibition class): < 40%
- inhibition at 10 µM (EPHA2; read-out: % Inhibition): 16%
- inhibition at 10 µM (EPHA2; read-out: % Inhibition class): < 40%
- inhibition at 10 µM (FGR; read-out: % Inhibition): 51%
- inhibition at 10 µM (FGR; read-out: % Inhibition class): 40 to 80%
- inhibition at 10 µM (FLT1 (VEGFR1); read-out: % Inhibition): 18%
- inhibition at 10 µM (FLT1 (VEGFR1); read-out: % Inhibition class): < 40%
- inhibition at 10 µM (FLT4 (VEGFR3); read-out: % Inhibition): 55%
- inhibition at 10 µM (FLT4 (VEGFR3); read-out: % Inhibition class): 40 to 80%
- inhibition at 10 µM (FYN; read-out: % Inhibition): 17%
- inhibition at 10 µM (FYN; read-out: % Inhibition class): < 40%
- % Inhibition (GSG2 (Haspin); 10 μM): 34% and 65%
- inhibition at 10 µM (GSG2 (Haspin); read-out: % Inhibition class): < 40%
- inhibition at 10 µM (IGF1R; read-out: % Inhibition): 10%
- inhibition at 10 µM (IGF1R; read-out: % Inhibition class): < 40%
- inhibition at 10 µM (IKBKE (IKK epsilon); read-out: % Inhibition): 16%
- inhibition at 10 µM (IKBKE (IKK epsilon); read-out: % Inhibition class): < 40%
- inhibition at 10 µM (JAK2; read-out: % Inhibition): 22%
- inhibition at 10 µM (JAK2; read-out: % Inhibition class): < 40%
- inhibition at 10 µM (JAK2 JH1 JH2; read-out: % Inhibition): 15%
- inhibition at 10 µM (JAK2 JH1 JH2; read-out: % Inhibition class): < 40%
- inhibition at 10 µM (JAK2 JH1 JH2 V617F; read-out: % Inhibition): 6%
- inhibition at 10 µM (JAK2 JH1 JH2 V617F; read-out: % Inhibition class): < 40%
- inhibition at 10 µM (LYN A; read-out: % Inhibition): 12%
- inhibition at 10 µM (LYN A; read-out: % Inhibition class): < 40%
- inhibition at 10 µM (MAP3K8 (COT); read-out: % Inhibition): 29%
- inhibition at 10 µM (MAP3K8 (COT); read-out: % Inhibition class): < 40%
- inhibition at 10 µM (MST1R (RON); read-out: % Inhibition): 27%
- inhibition at 10 µM (MST1R (RON); read-out: % Inhibition class): < 40%
- inhibition at 10 µM (PAK4; read-out: % Inhibition): 29%
- inhibition at 10 µM (PAK4; read-out: % Inhibition class): < 40%
- inhibition at 10 µM (PDGFRA (PDGFR alpha); read-out: % Inhibition): 13%
- inhibition at 10 µM (PDGFRA (PDGFR alpha); read-out: % Inhibition class): < 40%
- inhibition at 10 µM [1]: < 40%
- % Inhibition (PIK3CG (p110 gamma); 10 μM): 11%
- inhibition at 10 µM (PIK3CG (p110 gamma); read-out: % Inhibition): 12%
- inhibition at 10 µM (PIK3CG (p110 gamma); read-out: % Inhibition class): < 40%
- inhibition at 10 µM (PRKCB2 (PKC beta II); read-out: % Inhibition): 23%
- inhibition at 10 µM (PRKCB2 (PKC beta II); read-out: % Inhibition class): < 40%
- inhibition at 10 µM (PTK2 (FAK); read-out: % Inhibition): 26%
- inhibition at 10 µM (PTK2 (FAK); read-out: % Inhibition class): < 40%
- inhibition at 10 µM (ROCK1; read-out: % Inhibition): 21%
- inhibition at 10 µM (ROCK1; read-out: % Inhibition class): < 40%
- inhibition at 10 µM (ROS1; read-out: % Inhibition): 3%
- inhibition at 10 µM (ROS1; read-out: % Inhibition class): < 40%
- inhibition at 10 µM (SPHK1): < 40%
- inhibition at 10 µM (SYK; read-out: % Inhibition): 39%
- inhibition at 10 µM (SYK; read-out: % Inhibition class): < 40%
- inhibition at 10 µM (YES1; read-out: % Inhibition): 24%
- inhibition at 10 µM (YES1; read-out: % Inhibition class): < 40%
Structure (SMILES): Nc1cc(N)c2c(c1)C(=O)NC2=O [RJ1, 4,6-diaminoisoindoline-1,3-dione]

From patent US11912660B2, “S6K1 protein kinase inhibitors as cancer therapeutics” (Xavier University of Louisiana, priority 2020, dated 2024)
